Data published in the NIST ThermoML archive (doi:10.1007/s10765-005-8096-3).
Numbers after ± are expanded uncertainties.

assay: refractive index (Na D-line) (dimensionless); settings: 298.15 K; 101.33 kPa; Liquid; Standard Abbe refractometry

Row | Structure (SMILES) | refractive index
1 | Cc1cc(C)cc(C)c1 [1,3,5-trimethylbenzene] | 1.49682 ± 0.00075
2 | Cc1ccc(C)cc1 [1,4-dimethylbenzene] | 1.49298 ± 0.00075
3 | CC(C)(C)c1ccccc1 [(1,1-dimethylethyl)benzene] | 1.49003 ± 0.00075
4 | CC(C)Cc1ccccc1 [(2-methylpropyl)benzene] | 1.48397 ± 0.00075
5 | CCCCOC(C)=O [butyl ethanoate] | 1.39176 ± 0.00075
6 | CCCCc1ccccc1 [butylbenzene] | 1.48735 ± 0.00075
7 | CCc1ccccc1 [ethylbenzene] | 1.49316 ± 0.00075
8 | CC(C)c1ccccc1 [isopropylbenzene] | 1.48869 ± 0.00075
9 | Cc1ccccc1 [toluene] | 1.49399 ± 0.00075
